Test results taken from patent US6562335B1, “NK-1 receptor antagonists for prevention of neurogenic inflammation in gene therapy” (Pfizer, Inc., priority 1995, dated 2003).

Biological target: T1, substance P (NK-1) receptor (Rattus norvegicus, UniProt P14600)
T1 construct: from tissue; host or cells: living Fischer F344 rats; read-out in trachea and main stem bronchi
Test: Capsaicin-induced Evans blue extravasation in airways of rats inoculated endotracheally with Ad5CMVLacZ
Assay type: in vivo
Conditions: Fischer F344 rats inoculated with Ad5CMVLacZ, 5 days after inoculation; pretreatment 4 mg/kg i.v., n=5; p>0.05 vs vector without pretreatment
Method: Pathogen-free Fischer F344 male rats (220-287 grams in weight, 12-14 weeks of age), under sodium pentobarotal anesthesia, received a localized endotracheal inoculation with 100 μL cf phosphate-buffered saline (PBS) containing 3×10^12 particles/mL of Ad5CMVLacZ, an adenovirus type 5 vector defective in the E1 and E3 regions of the viral genome and containing the LacZ transgene under the control of the CMV (cytomegalo virus) immediate early promoter. A control group of rats was inoculated with sterile PBS.
Five minutes after pretreatment, Evans blue dye (30 mg/kg i.v.) was injected into all the rats to measure the increase in vascular permeability associated with the neurogenic inflammation. Capsaicin (75 mg/kg i.v. over 2 min) was injected immediately after Evans blue to stimulate the sensory nerves in the airway mucosa. Five minutes after capsaicin, the rats were perfused through the heart with 100 mL of PBS. The trachea and main stem bronchi were removed and incubated in formamide (18 hours at 50° C.) to extract the extravasated tracer. The magnitude of the Evans blue extravasation was determined by spectrophotometric measurements of the optical density of formamide extracts.

T1 sequence (P14600 whole entry): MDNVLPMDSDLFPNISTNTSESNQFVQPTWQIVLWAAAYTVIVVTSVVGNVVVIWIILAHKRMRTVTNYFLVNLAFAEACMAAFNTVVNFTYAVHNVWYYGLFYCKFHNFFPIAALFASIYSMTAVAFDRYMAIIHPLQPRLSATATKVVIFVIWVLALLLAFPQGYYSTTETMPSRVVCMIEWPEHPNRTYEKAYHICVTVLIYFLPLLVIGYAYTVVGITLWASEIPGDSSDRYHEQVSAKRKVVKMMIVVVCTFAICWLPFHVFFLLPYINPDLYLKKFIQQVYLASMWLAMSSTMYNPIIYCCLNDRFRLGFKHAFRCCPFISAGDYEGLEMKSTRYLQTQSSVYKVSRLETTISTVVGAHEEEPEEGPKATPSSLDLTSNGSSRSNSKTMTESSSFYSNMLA

SMILES: COc1ccccc1CN[C@@H]1CCCN[C@@H]1c1ccccc1 [compound B, (2R,3R)-2-phenyl-3-[(2-methoxyphenyl)methylamino]piperidine]
- extravasation of Evans blue produced by capsaicin (trachea and main stem bronchi), mean ±SEM: 88.3 ± 5.8 ng/mg
